Source: patent publication US10766873B2, “Zuclopenthixol hydrochloride derivatives and Ebselen derivatives as ErbB2 inhibitors” (Centre National de la Recherche Scientifique (CNRS), priority 2016, dated 2020)

Key:
FERM/CD44 interaction = target: T1, FERM/CD44 interaction (Homo sapiens, UniProt P16070); assay: AlphaScreen counter screen, FERM/CD44 interaction; format: binding; conditions: 1 h
T1 construct: the juxtamembrane region of CD44 (biotin-[…]); made in house
Source text: To validate that the Zuclopenthixol hydrochloride (ZU) and its derivatives interact with the juxtamembrane domain of ErbB2, we first analyzed in AlphaScreen® their efficiency to inhibit FERM/ErbB2 interaction in a dose-dependent manner and determined IC50 value. Furthermore, to test the selectivity of those compounds, we tested their ability to disrupt the interaction between the FERM domain and the known ERM binding motif contained in the juxtamembrane region of CD44 as a control.
AlphaScreen® technology was used to assess the interaction between the Ezrin binding motif (EBM) contained in the juxtamembrane portions of ErbB2 or CD44 with the Ezrin FERM domain. For this purpose the Ezrin FERM domain in fusion with Glutathione-S-Transferase (GST) has been coupled to GSH-coated acceptor beads. Biotinylated ErbB2 peptide encoding the Ezrin binding motif (amino acid 674 to 689: biotin-[…], 26 aa) or the juxtamembrane region of CD44 (biotin-[…]), for the counter screen have been synthesized and coupled to streptavidin-covered donor beads. […]
The reaction was performed using white 384-well Optiplates (PerkinElmer, Whalham, Mass., USA) in 20 μl (total reaction volume) in a reaction buffer containing PBS, pH 7.4, 5 mM MgCl2 and 0.02% CHAPS. […] Light signal was detected with the EnVision® multilabel plate reader (PerkinElmer). […]

SKBR3 = assay: MTT cell proliferation, SKBR3; format: cell-based, human
Method: (§1) We then analyzed the ability of ZU and EB1 and their derivatives to decrease the ErbB2-dependent cell proliferation.
(§2) SKBR3, BT474, MCF-7, MDA-MB-231 and HBMEC cells were treated with the compounds as indicated, and cell proliferation was determined each day during 3 days using an MTT assay. Non treated cells were included as a negative control.
A solution of ZU in cis conformation was mixed to a solution of ZU in trans conformation (1:1) to obtain ZU in a 50/50 cis/trans conformation and their respective effects on ErbB2 activation and ErbB2-dependent cell proliferation were analyzed as previously by dot blot analysis using an anti-phosphotyrosine antibody (clone 4G10) and by MTT assays in the ErbB2-overexpressing breast cancer cell line SKBR3, BT474, or HBMEC as a control.

MDA-MB-231 = assay: MTT cell proliferation, MDA-MB-231; format: cell-based; conditions: 10 μM
Method: as §1, §2
The ErbB2-overexpressing gastric cancer cell line N87 and MDAMB-231, a non ErbB2-overexpressing breast cancer cell line were treated with 3, 5 or 7 μM of ZU and cell proliferation was determined each day during 3 days using an MTT assay. Non treated cells were included as a negative control.
The ErbB2-overexpressing ovarian cancer cell line SKOV3 and MDAMB-231, a non ErbB2-overexpressing breast cancer cell line were treated with 3, 5 or 7 μM of ZU and cell proliferation was determined each day during 3 days using an MTT assay. Non treated cells were included as a negative control.

[1] = system: human breast cancer BT474 cells; assay: BT474 orthotopic xenograft in mammary fat pad of mice; format: in vivo, NOD.Cg-Prkdc scid/J mice; conditions: for tumor growth in vivo (in words): then once per day 3 days
Method: 5.10^6 BT474 cells were implanted orthotopically in the mammary fat pad of NOD.Cg-Prkdc scid/J mice, in the presence of estradiol supplement. After 4 weeks, mice were injected with ZU (N=10, 5 mg/kg per day for 5 days a week, followed by 3 mg/kg for 5 days a week during three weeks for N=6) or vehicle (N=10, 10% DMSO in PBS). Mice weight and tumor volume were measured 3 and 2 times a week respectively.
5.10^6 BT474 cells were implanted orthotopically in the mammary fat pad of NOD.Cg-Prkdc scid/J mice, in the presence of estradiol supplement. Nineteen days after implantation, treatment began and mice were injected i.p. with […] ZU (5 mg/kg per day for 3 days a week, during three weeks for N=9), 4 mg/kg ZU (5 days a week during three weeks, N=8) or vehicle (N=9, 10% DMSO in PBS). Mice weight and tumor volume were measured 3 and 2 times a week respectively.
5.10^6 BT474 cells were implanted orthotopically in the mammary fat pad of NOD.Cg-Prkdc scid/J mice, in the presence of estradiol supplement. After 4 weeks, mice were injected with EB1 3 mg/kg (N=8), 5 mg/kg (N=6) or vehicle (N=8, 10% DMSO in PBS) twice a day for 5 days a week (2×D), during 2 weeks then once per day (1×D) during 3 days. Mice weight and tumor volume were measured 3 and 2 times a week respectively.

WT ErbB2 = target: T2, WT ErbB2 (Homo sapiens, UniProt P04626); assay: Western blot pY1248, WT ErbB2 in transfected HBMECs; format: cell-based; conditions: 0, 5, 10 or 20 μM, 48 h
T2 construct: expressed in transfected cells; host or cells: HBMEC
T2 sequence (P04626 23-1255): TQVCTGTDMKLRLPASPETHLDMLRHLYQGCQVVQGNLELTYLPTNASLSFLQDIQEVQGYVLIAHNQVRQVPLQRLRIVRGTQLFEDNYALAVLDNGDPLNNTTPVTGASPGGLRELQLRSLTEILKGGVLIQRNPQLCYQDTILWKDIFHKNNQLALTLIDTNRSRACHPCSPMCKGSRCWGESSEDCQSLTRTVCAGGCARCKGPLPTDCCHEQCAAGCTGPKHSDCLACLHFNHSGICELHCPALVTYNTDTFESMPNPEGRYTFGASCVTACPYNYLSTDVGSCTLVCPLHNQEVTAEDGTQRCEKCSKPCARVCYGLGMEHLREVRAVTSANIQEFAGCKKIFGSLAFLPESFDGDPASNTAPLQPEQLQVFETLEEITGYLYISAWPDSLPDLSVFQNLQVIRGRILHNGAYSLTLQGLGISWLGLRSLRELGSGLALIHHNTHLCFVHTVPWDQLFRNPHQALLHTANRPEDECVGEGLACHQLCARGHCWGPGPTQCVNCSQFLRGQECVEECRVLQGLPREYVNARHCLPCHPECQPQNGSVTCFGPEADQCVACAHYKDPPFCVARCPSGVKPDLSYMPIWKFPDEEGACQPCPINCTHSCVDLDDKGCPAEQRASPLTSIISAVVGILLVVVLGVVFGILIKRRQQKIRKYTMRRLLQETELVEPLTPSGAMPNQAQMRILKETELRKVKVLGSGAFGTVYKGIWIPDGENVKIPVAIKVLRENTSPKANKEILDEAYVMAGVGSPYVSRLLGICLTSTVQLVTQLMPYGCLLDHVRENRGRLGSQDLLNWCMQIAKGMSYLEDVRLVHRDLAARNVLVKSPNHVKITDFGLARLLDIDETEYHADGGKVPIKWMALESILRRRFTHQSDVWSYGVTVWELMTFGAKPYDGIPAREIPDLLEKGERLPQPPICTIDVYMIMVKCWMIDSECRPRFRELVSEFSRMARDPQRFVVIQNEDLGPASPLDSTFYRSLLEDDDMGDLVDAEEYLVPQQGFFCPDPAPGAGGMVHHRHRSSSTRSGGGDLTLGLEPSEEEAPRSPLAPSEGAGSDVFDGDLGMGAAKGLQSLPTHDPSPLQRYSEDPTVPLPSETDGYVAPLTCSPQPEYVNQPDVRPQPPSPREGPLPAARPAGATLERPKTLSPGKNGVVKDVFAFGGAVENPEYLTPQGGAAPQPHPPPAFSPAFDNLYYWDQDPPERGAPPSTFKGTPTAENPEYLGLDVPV
Method: HBMECs cells were transfected with plasmids encoding WT, ΔEBM (a form of ErbB2 carrying mutations in the juxtamembrane domain and unable to bind to the Ezrin FERM domain), V659E or p95 ErbB2 and treated with 0, 5, 10 or 20 μM ZU for 24 h. ErbB2 activation was then analyzed by western blot analysis using a phospho-ErbB2-specific antibody (pY1248) and a tubulin antibody as a loading control. Histograms show optical density quantification.
HBMECs cells were transfected with plasmids encoding WT, V777L or V842I and treated with 0, 5, 10 or 20 μM ZU or EB1 for 48 h. ErbB2 activation was then analyzed by western blot analysis using a phospho-ErbB2-specific antibody (pY1248) and a total ErbB2 antibody. Histograms show optical density quantification.

[2] = system: V777L ErbB2-transfected cells; assay: MTT cell proliferation, V777L ErbB2-transfected HBMEC; format: cell-based; conditions: day 3
Method: The WT, V777L or V842I ErbB2-transfected cells were treated with 5 or 10 μM of ZU and cell proliferation was determined each day during 3 days using an MTT assay. Non transfected cells were included as a negative control.
The WT, V777L or V842I ErbB2-transfected cells were treated with 5 or 10 μM of EB1 and cell proliferation was determined each day during 3 days using an MTT assay. Non transfected cells were included as a negative control.

In the case of O=C1c2ccccc2[Se](=O)N1c1ccccc1 (centres unmarked) [EB1, Ebselen oxide], the “effect on FERM/CD44 interaction” value (FERM/CD44 interaction) is reported as “without significantly altering FERM/CD44 interaction at low doses”, the IC50 (SKBR3; Homo sapiens, SK-BR-3) is reported as 7.5 µM and the EC50 (SKBR3; Homo sapiens, SK-BR-3, 72 h, day 3, read-out: Cell proliferation at d 3 SKBR3 EC50) is reported as 7.4 µM. The “Cell proliferation at d 3 SKBR3 Max inhibition, %” value (SKBR3; day 3) was 96.7%, the “effect on MDA-MB-231 proliferation (in words)” value (MDA-MB-231) was “without any effect” and the “tumor growth in vivo (in words)” value ([1]; 3 mg/kg twice a day 5 days a week 2 weeks) was “able to decrease the tumor growth”. For the same compound, the “tumor growth in vivo (in words)” value ([1]; 5 mg/kg twice a day 5 days a week 2 weeks, tumor volume and tumor weight) was “more significant”, the “tolerability in mice, body weight (in words)” value ([1]; 3 or 5 mg/kg) was “well tolerated” and the “ErbB2 WT activation (in words)” value (WT ErbB2) was “potently decrease”. For the same compound, the “decrease of the proliferation of V777L transfected HBMEC” value ([2]; 5 μM) was 70% and the “decrease of the proliferation of V777L transfected HBMEC” value ([2]; 10 μM) was 85%.
